Experimental data: PubChem BioAssay AID1963828 (Molecular Pharmacology Branch, DTP, NCI, 2024)

Test system: 991263-137-R1-J2-PDC complex spheroid viability
Test: Anticancer human tumor 991263-137-R1-J2-PDC patient-derived colon adenocarcinoma cell line growth inhibition [POLQ]
Conditions: for IC50: curve of first compound; for viability, T/C: stronger effect = lower value
Outline: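 Three-cell-type spheroids modelling solid tumor plus stroma served as the readout system; POL inhibitors were tested individually and in combination, concentration ranges set by clinical Cmax where known.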

[1] = second compound 0.0316 µM, first compound 0.00316 µM
[2] = second compound 0.0316 µM, first compound 0.01 µM
[3] = second compound 0.0316 µM, first compound 0.0316 µM
[4] = second compound 0.0316 µM, first compound 0.1 µM
[5] = second compound 0.0316 µM, first compound 0.316 µM
[6] = second compound 0.0316 µM, first compound 1 µM
[7] = second compound 0.1 µM, first compound 0.00316 µM
[8] = second compound 0.1 µM, first compound 0.01 µM
[9] = second compound 0.1 µM, first compound 0.0316 µM
[10] = second compound 0.1 µM, first compound 0.1 µM
[11] = second compound 0.1 µM, first compound 0.316 µM
[12] = second compound 0.1 µM, first compound 1 µM
[13] = second compound 0.316 µM, first compound 0.00316 µM
[14] = second compound 0.316 µM, first compound 0.01 µM
[15] = second compound 0.316 µM, first compound 0.0316 µM
[16] = second compound 0.316 µM, first compound 0.1 µM
[17] = second compound 0.316 µM, first compound 0.316 µM
[18] = second compound 0.316 µM, first compound 1 µM
[19] = second compound 1 µM, first compound 0.00316 µM
[20] = second compound 1 µM, first compound 0.01 µM
[21] = second compound 1 µM, first compound 0.0316 µM
[22] = second compound 1 µM, first compound 0.1 µM
[23] = second compound 1 µM, first compound 0.316 µM
[24] = second compound 1 µM, first compound 1 µM
[25] = second compound 3.16 µM, first compound 0.00316 µM
[26] = second compound 3.16 µM, first compound 0.01 µM
[27] = second compound 3.16 µM, first compound 0.0316 µM
[28] = second compound 3.16 µM, first compound 0.1 µM
[29] = second compound 3.16 µM, first compound 0.316 µM
[30] = second compound 3.16 µM, first compound 1 µM
[31] = second compound 10 µM, first compound 0.00316 µM
[32] = second compound 10 µM, first compound 0.01 µM
[33] = second compound 10 µM, first compound 0.0316 µM
[34] = second compound 10 µM, first compound 0.1 µM
[35] = second compound 10 µM, first compound 0.316 µM
[36] = second compound 10 µM, first compound 1 µM
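Further: spheroids exposed to compounds for 7 days before readout.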
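Wherever viability, T/C is given: 100% = DMSO vehicle control viability.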

Molecule `COc1cccc(OCCCN)c1-c1cc(Nc2cnc(C#N)cn2)n[nH]1` + COC1C(OC(N)=O)C(O)C(Oc2ccc3c(O)c(NC(=O)c4ccc(O)c(CC=C(C)C)c4)c(=O)oc3c2C)OC1(C)C has an IC50 (second compound 0.0316 µM) of 276 nM, an IC50 (second compound 0.1 µM) of 421 nM and an IC50 (second compound 0.316 µM) of 338 nM. It also gave an IC50 (second compound 1 µM) of 459 nM, an IC50 (second compound 3.16 µM) of 491 nM and an IC50 (second compound 10 µM) of 513 nM. For the same molecule, the viability, T/C [1] was 111%, the viability, T/C [2] was 109% and the viability, T/C [3] was 84.4%. For the same molecule, the viability, T/C [4] was 63.6%, the viability, T/C [5] was 52.1% and the viability, T/C [6] was 35.6%. For the same molecule, the viability, T/C [7] was 97.3%, the viability, T/C [8] was 89.4% and the viability, T/C [9] was 92.9%. It also gave a viability, T/C [10] of 69.2%, a viability, T/C [11] of 59.6% and a viability, T/C [12] of 28.7%. For the same molecule, the viability, T/C [13] was 99.3%, the viability, T/C [14] was 104% and the viability, T/C [15] was 102%. For the same molecule, the viability, T/C [16] was 77.8%, the viability, T/C [17] was 53.2% and the viability, T/C [18] was 29.6%. The viability, T/C [19] was 111%, the viability, T/C [20] was 80% and the viability, T/C [21] was 80.6%. For the same molecule, the viability, T/C [22] was 75.8%, the viability, T/C [23] was 61.4% and the viability, T/C [24] was 33.7%. The viability, T/C [25] was 109%, the viability, T/C [26] was 74.2% and the viability, T/C [27] was 91.9%. It also gave a viability, T/C [28] of 87.5%, a viability, T/C [29] of 59.3% and a viability, T/C [30] of 34.8%. The viability, T/C [31] was 75.8%, the viability, T/C [32] was 95.2% and the viability, T/C [33] was 90%. It also gave a viability, T/C [34] of 76.9%, a viability, T/C [35] of 59.3% and a viability, T/C [36] of 37.9%.

Work on `Cn1ncnc1[C@H]1c2n[nH]c(=O)c3cc(F)cc(c23)N[C@@H]1c1ccc(F)cc1` + COC1C(OC(N)=O)C(O)C(Oc2ccc3c(O)c(NC(=O)c4ccc(O)c(CC=C(C)C)c4)c(=O)oc3c2C)OC1(C)C yielded an IC50 (second compound 0.0316 µM) greater than 100 nM, an IC50 (second compound 0.1 µM) greater than 100 nM and an IC50 (second compound 0.316 µM) greater than 100 nM. It also gave an IC50 (second compound 1 µM) greater than 100 nM, an IC50 (second compound 3.16 µM) greater than 100 nM and an IC50 (second compound 10 µM) greater than 100 nM. The viability, T/C (second compound 0.0316 µM, first compound 0.000316 µM) was 122%, the viability, T/C (second compound 0.0316 µM, first compound 0.001 µM) was 107% and the viability, T/C [1] was 104%. The viability, T/C [2] was 85.5%, the viability, T/C [3] was 79.3% and the viability, T/C [4] was 107%. It also gave a viability, T/C (second compound 0.1 µM, first compound 0.000316 µM) of 99.8%, a viability, T/C (second compound 0.1 µM, first compound 0.001 µM) of 117% and a viability, T/C [7] of 97.7%. It also gave a viability, T/C [8] of 83.8%, a viability, T/C [9] of 105% and a viability, T/C [10] of 102%. For the same molecule, the viability, T/C (second compound 0.316 µM, first compound 0.000316 µM) was 95%, the viability, T/C (second compound 0.316 µM, first compound 0.001 µM) was 122% and the viability, T/C [13] was 75.4%. It also gave a viability, T/C [14] of 108%, a viability, T/C [15] of 109% and a viability, T/C [16] of 110%. It also gave a viability, T/C (second compound 1 µM, first compound 0.000316 µM) of 98.1%, a viability, T/C (second compound 1 µM, first compound 0.001 µM) of 117% and a viability, T/C [19] of 94.2%. For the same molecule, the viability, T/C [20] was 106%, the viability, T/C [21] was 71.5% and the viability, T/C [22] was 109%. The viability, T/C (second compound 3.16 µM, first compound 0.000316 µM) was 95.9%, the viability, T/C (second compound 3.16 µM, first compound 0.001 µM) was 109% and the viability, T/C [25] was 92.1%. For the same molecule, the viability, T/C [26] was 102%, the viability, T/C [27] was 109% and the viability, T/C [28] was 110%. The viability, T/C (second compound 10 µM, first compound 0.000316 µM) was 95.7%, the viability, T/C (second compound 10 µM, first compound 0.001 µM) was 110% and the viability, T/C [31] was 121%. The viability, T/C [32] was 98%, the viability, T/C [33] was 113% and the viability, T/C [34] was 95.8%.

For `O=C(c1cc(Cc2n[nH]c(=O)c3ccccc23)ccc1F)N1CCN(C(=O)C2CC2)CC1` + COC1C(OC(N)=O)C(O)C(Oc2ccc3c(O)c(NC(=O)c4ccc(O)c(CC=C(C)C)c4)c(=O)oc3c2C)OC1(C)C, the IC50 (second compound 0.0316 µM) was greater than 10000 nM, the IC50 (second compound 0.1 µM) was greater than 10000 nM and the IC50 (second compound 0.316 µM) was greater than 10000 nM. The IC50 (second compound 1 µM) was greater than 10000 nM, the IC50 (second compound 3.16 µM) was greater than 10000 nM and the IC50 (second compound 10 µM) was greater than 10000 nM. For the same molecule, the viability, T/C [3] was 99.2%, the viability, T/C [4] was 96.8% and the viability, T/C [5] was 90.2%. It also gave a viability, T/C [6] of 92.7%, a viability, T/C (second compound 0.0316 µM, first compound 3.16 µM) of 96.9% and a viability, T/C (second compound 0.0316 µM, first compound 10 µM) of 95.5%. The viability, T/C [9] was 99.2%, the viability, T/C [10] was 101% and the viability, T/C [11] was 100%. It also gave a viability, T/C [12] of 82.1%, a viability, T/C (second compound 0.1 µM, first compound 3.16 µM) of 85.5% and a viability, T/C (second compound 0.1 µM, first compound 10 µM) of 85.6%. The viability, T/C [15] was 113%, the viability, T/C [16] was 109% and the viability, T/C [17] was 81.6%. For the same molecule, the viability, T/C [18] was 92.5%, the viability, T/C (second compound 0.316 µM, first compound 3.16 µM) was 113% and the viability, T/C (second compound 0.316 µM, first compound 10 µM) was 108%. It also gave a viability, T/C [21] of 93.9%, a viability, T/C [22] of 98.1% and a viability, T/C [23] of 78.2%. For the same molecule, the viability, T/C [24] was 93.7%, the viability, T/C (second compound 1 µM, first compound 3.16 µM) was 73.5% and the viability, T/C (second compound 1 µM, first compound 10 µM) was 101%. The viability, T/C [27] was 94.5%, the viability, T/C [28] was 103% and the viability, T/C [29] was 104%. It also gave a viability, T/C [30] of 85%, a viability, T/C (second compound 3.16 µM, first compound 3.16 µM) of 109% and a viability, T/C (second compound 3.16 µM, first compound 10 µM) of 113%. For the same molecule, the viability, T/C [33] was 82.4%, the viability, T/C [34] was 94.7% and the viability, T/C [35] was 106%. For the same molecule, the viability, T/C [36] was 78.4%, the viability, T/C (second compound 10 µM, first compound 3.16 µM) was 112% and the viability, T/C (second compound 10 µM, first compound 10 µM) was 103%.
